# Experimental data taken from patent publication US11708338B2, “Substituted phenyl sulfonyl phenyl triazole thiones and uses thereof” (Neuropore Therapies, Inc., priority 2017, dated 2023).
# Columns and labels:
# Type in all cases: in vivo, mouse
# amyloid beta = assay: Amyloid beta (6E10) immunostaining in brain of L41 APP transgenic mice; conditions: 5 mg/kg daily i.p.
# Method: As described earlier, Line 41 transgenic mice express high levels of the mutant hAPP751 and develop mature plaques in the cortex, hippocampus, thalamus and olfactory region of mouse brain. The effects of Compound 1 on Amyloid beta plaque formation were assessed in both L41 APP transgenic and non-transgenic mice in a 1 month administration study. After 30 days, the mice were sacrificed, and immunofluorescence (IF) detection of amyloid beta were assessed in the harvested brain tissues.
# The harvested brain tissues were drop fixed using 4% PFA and sectioned on a vibratome, and representative sections containing the neuropil of cortex, hippocampus and striatum were assessed for amyloid beta with standard IHC staining.
# On approximately day 30, all subjects were euthanized within 2 hours of the last treatment and brain and other samples were collected. Brains were removed and divided sagitally. […]
# Prepared slides were imaged at 40× using a high-resolution Hamamatsu Nanozoomer™ scanner located in the Microscopy Core in the UCSD Department of Neurosciences. Digital images were then transferred to Neuropore and analyzed using the Halo® imaging software package (Indica Labs, Corrales, N. Mex.). […] Images were evaluated for specimen and imaging problems and any issues were noted prior to unblinding of samples and statistical analyses.
# [1] = tested on: total alpha-synuclein (ASYN); assay: IHC quantification of total alpha-synuclein deposits in brain, 1 month administration study; conditions: for reduction of total alpha-synuclein level in cortex as compared to vehicle control: L61 ASYN transgenic mice, FIG. 7A
# Method: Multiple in vivo administration studies of Compound 1 were carried out in the Line 61 (L61) mThy1-alpha-synuclein transgenic mouse model of Parkinson's disease (PD). The mThy1-alpha-synuclein transgenic mouse model overexpresses wild-type human ASYN under the Thy-1 promoter studies (commonly referred to as Line 61 transgenic mice; Rockenstein et al., 2002). This transgenic mouse develops extensive accumulation of alpha-synuclein (ASYN) in areas relevant to PD (Rockenstein et al., 2002; Chesselet et al., 2012; Games et al., 2013), neurodegeneration including dopaminergic neurodegeneration, reduced dopamine (DA) and TH loss in the striatum (Masliah et al., 2000; Lam et al., 2011), and motor deficits (Fleming et al., 2004). Male transgenic and non-transgenic littermates (3-3.5 mo) were used for all in vivo studies presented here.
# Alpha-synuclein (ASYN) is a neuronal protein whose dysregulation has been implicated in the pathogenesis of PD. The effects of Compound 1 on alpha-synuclein aggregation were assessed in both L61 ASYN transgenic and non-transgenic mice in a 1 month administration study. L61 ASYN transgenic mice (36 total mice, n=8-11 mice per treatment group) were injected (i.p.) with 1, 5, or 10 mg/kg of Compound 1 or a vehicle control (5% DMSO+20% Cremphor EL+0.9% normal saline) per day for 1 month. Non-transgenic mice (18 total mice, n=8-11 mice per treatment group) were used as a control and were injected daily (i.p.) with 10 mg/kg of Compound 1 or a vehicle control (5% DMSO+20% Cremphor EL+0.9% normal saline) per day for 1 month. At the end of one month, the mice were sacrificed, and immunohistochemical (IHC) detection of total alpha-synuclein deposits, insoluble alpha-synuclein deposits (PK+resistant), microtubule-associated protein 1A/1B-light chain 3 (LC3), and monomeric alpha-synuclein levels were assessed in the harvested brain tissues.
# The quantification and IHC staining of total alpha-synuclein were performed using known techniques (Rockenstein et al., J Neurosci Res. 2002, 68(5):568-78; Tanji et al., Acta Neuropathol. 2010, 120, 145-154; Nuber et al., Brain. 2013, February; 136(Pt 2):412-32).
# [2] = tested on: glial fibrillary acidic protein (GFAP); assay: GFAP IHC staining in sections containing hippocampus, 1 month administration study; conditions: L61 ASYN transgenic mice
# Method: Neuroinflammation is also associated with increased expression of glial fibrillary acidic protein (GFAP) in activated astrocytes, which is induced by a variety of molecules including pro-inflammatory mediators released from activated microglia (Saijo et al. 2009). Increased expression of glial fibrillary acidic protein (GFAP) represents astroglial activation and gliosis during neurodegeneration. (Brahmachari et al., 2006). The effects of Compound 1 on GFAP expression were assessed in both L61 ASYN transgenic and non-transgenic mice in a 1 month administration study. After 30 days, the mice were sacrificed, and IHC detection of GFAP was assessed in the harvested brain tissues.
# The harvested brain tissues from treated mice were fixed (drop fixed in 4% PFA) and then sectioned into 40 micro thick sections using a vibratome. The representative sections containing the hippocampus were assessed for GFAP with standard immunohistochemistry staining. The general methods used for GFAP immunostaining follow those described in Rockenstein et al., J Neurosci Res. 2002, 68(5):568-78.
# [3] = L61 ASYN transgenic mice, 1, 5 or 10 mg/kg per day i.p.
structure (smiles),measurement,setting,value
"O=S(=O)(c1ccc(-n2cn[nH]c2=S)cc1)c1ccc(Cl)c(C(F)(F)F)c1 [Compound 1, 4-(4-((4-chloro-3-(trifluoromethyl)phenyl)sulfonyl)phenyl)-2,4-dihydro-3H-1,2,4-triazole-3-thione]","amyloid beta level vs vehicle-treated Line 41 mice, quantification",amyloid beta,reduces the amyloid beta level in a statistically significant manner
same,reduction of total alpha-synuclein level in cortex as compared to vehicle control,[1]; 1 mg/kg per day i.p.,13%
same,reduction of total alpha-synuclein level in cortex as compared to vehicle control,[1]; 5 mg/kg per day i.p.,32%
same,reduction of total alpha-synuclein level in cortex as compared to vehicle control,[1]; 10 mg/kg per day i.p.,38%
same,total ASYN in the neuropil of cortex vs vehicle control,[1]; [3],reduced
same,total ASYN in the neuropil of hippocampus vs vehicle control,[1]; [3],reduced
same,total ASYN in the neuropil of striatum vs vehicle control,[1]; [3],reduced
same,"GFAP levels, IHC staining intensity in representative images (FIG. 16)",[2]; 5 mg/kg or 10 mg/kg daily i.p.,reducing cortical levels of GFAP
same,"GFAP levels, quantification (FIG. 17)",[2]; 10 mg/kg dose i.p. daily,reduces the cortical GFAP levels in a statistically significant manner
